US11859248B2, “Nucleic acid modification and identification method” (IMBA—INSTITUT FÜR MOLEKULARE BIOTECHNOLOGIE GMBH, priority 2017, dated 2024)

Key:
[1] = system: Drosophila S2 cells; assay: Small RNA sequencing of Drosophila S2 cells after s^4U metabolic labeling; assay type: cell-based, Drosophila melanogaster
Experimental: Upon generating libraries from size-selected total RNA of Drosophila S2 cells after s^4U metabolic labeling for 24 hours, we observed a strong accumulation of T>C conversions when compared to libraries prepared from unlabeled cells, as exemplified for the miR-184 locus, which gives rise to an abundantly expressed microRNA, miR-184-3p, and its less abundant miR*, miR-184-5p (FIG. 12A). In order to confirm this observation at the genomic scale, we aligned reads to annotated microRNA loci in the Drosophila genome and inspected the frequency of any given mutation normalized to overall T-content per miRNA (FIG. 12B). In the absence of s^4U metabolic labeling, we observed a median mutation rate of less than 0.1% for any given mutation, a rate that is consistent with Illumina-reported sequencing error rates. (Note, that iodoacetamide treatment of unlabeled total RNA had no detectable impact on small RNA abundance and mutation rate, as determined by high-throughput sequencing. See FIG. 19). After 24 h of s^4U metabolic labeling, we observed a statistically significant (p<10^−4, Mann-Whitney test), 74-fold increase in T>C mutation rates, while all other mutations remained below expected sequencing error rates (FIG. 12B).

[2] = system: mES cells; assay: HPLC analysis of s^4U-incorporation into total RNA of mES cells after metabolic labeling; assay type: cell-based, mouse; settings: 100 μM s^4U, 24 h labeling
Experimental: Analysis of s^4U- or s^6G-incorporation into total RNA following metabolic labeling was performed as previously described by Spitzer et al. (Meth Enzymol. 539, 113-161 (2014)).
(§1) mES cells were seeded the day before the experiment at a density of 10^5 cells/ml in 10 cm dishes. s^4U-metabolic labeling was performed by incubation of mES cells in standard medium but adding 100 μM s^4U or s^6G (SIGMA) from a 500 mM stock solution in water. During the metabolic labeling, s^4U or s^6G containing medium was exchanged every 3 h. For the uridine chase experiment, s^4U or s^6G containing medium was discarded, cells were washed twice with 1× PBS and incubated with standard medium supplemented with 10 mM uridine (SIGMA). Cells were directly lysed in TRIzol® (Ambion) and RNA was extracted following the manufacturer instructions except that 0.1 mM final concentration of DTT was added during isopropanol precipitation. RNA was resuspended in 1 mM DTT. […]
We tested the ability of mouse embryonic stem cells to tolerate s^4U metabolic RNA-labeling after 12 h or 24 h at varying s^4U concentrations (FIG. 6A). […] Under these conditions, we detected a steady increase in s^4U-incorporation in total RNA preparation 3 h, 6 h, 12 h, and 24 h post labeling, as well as a steady decrease 3 h, 6 h, 12 h, and 24 h after uridine chase (FIG. 6B). […]

[3] = system: mES cells; assay: mRNA 3' end sequencing (Quant-seq/SLAM-seq) of mES cells after s^4U metabolic labeling; assay type: cell-based, mouse
Experimental: as §1, with “(SIGMA).” for “(SIGMA). Cells were directly lysed in TRIzol® (Ambion) and RNA was extracted following the manufacturer instructions except that 0.1 mM final concentration of DTT was added during isopropanol precipitation. RNA was resuspended in 1 mM DTT.”
For analysis of mRNA 3′ end sequencing (Quant-seq) datasets, reads were demultiplexed using Picard Tools BamIndexDecoder v1.13 allowing 1 mismatch in the barcode. Five nucleotides at the 5′ end of demultiplexed reads were trimmed. Reads were aligned to mouse genome mm10 and alignments in annotated 3′ UTRs (Gencode) were counted using SLAMdunk (Neumann & Rescheneder, t-neumann.github.io/slamdunk/; Herzog et al., Nature Methods 14, 1198-1204 (2017)). Briefly, SLAMdunk relies on NextGenMap, a flexible and fast read mapping program, and was tailored using an adapted scoring scheme eliminating T>C mismatch penalties for the mapping step. T>C containing reads and non-T>C containing reads aligning to 3′ UTRs were quantified to deduce s^4U- or unlabeled transcript abundance, respectively. […]

Structure (SMILES): O=c1[nH]c(=S)ccn1[C@@H]1O[C@H](CO)[C@@H](O)[C@H]1O [s^4U, 4-thiouridine]
- median s^4U-incorporation in miRNAs ([1]; 500 μM s^4U, 24 h labeling): 2.22%
- increase in T>C mutation rates ([1]; 24 h labeling vs unlabeled): 74 fold
- maximum average s^4U incorporation in total RNA [2]: 1.78%
- median s^4U-incorporation in mRNA (3' UTRs) ([3]; 24 h labeling): 2.56%
- increase in T>C mutation rates ([3]; 24 h labeling vs unlabeled): 25 fold
